Data taken from patent US20250127906A1, “SMALL-MOLECULE DEGRADERS OF CDK8 AND CDK19” (University of South Carolina, priority 2021, published 2025).
Substitutions are numbered along the chain they refer to.

Legend:
CCL12 = CCL12 mRNA expression in CT26 tumors in Balb/c mice (QPCR); assay type: in vivo; conditions: oral gavage 20 mg/kg, 2, 8 or 24 hrs after dosing
Experimental: CT26 cells were injected subcutaneously into syngeneic Balb/c female mice and allowed to grow to 150˜200 mm^3. Tumor-bearing mice then received PROTACs IA7882 or IA7886 by oral gavage at 20 mg/kg in 30% propylene glycol/70% PEG-400 vehicle. Tumors were collected 2, 8 or 24 hrs after dosing and used to measure protein levels of CDK8, pS727 STAT1 and total STAT1 (by western blotting) and mRNA expression of CCL12, a gene that is inhibited by different CDK8/19 inhibitors in CT26 tumors in vivo (by QPCR).

CDK8 [1] = molecular target: T1, CDK8 (Mus musculus, UniProt Q8R3L8); assay: CDK8 degradation in murine CT26 colon carcinoma cells; assay type: cell-based; set-up: endogenous in cells; host or cells: CT26
T1 sequence (Q8R3L8 1-464): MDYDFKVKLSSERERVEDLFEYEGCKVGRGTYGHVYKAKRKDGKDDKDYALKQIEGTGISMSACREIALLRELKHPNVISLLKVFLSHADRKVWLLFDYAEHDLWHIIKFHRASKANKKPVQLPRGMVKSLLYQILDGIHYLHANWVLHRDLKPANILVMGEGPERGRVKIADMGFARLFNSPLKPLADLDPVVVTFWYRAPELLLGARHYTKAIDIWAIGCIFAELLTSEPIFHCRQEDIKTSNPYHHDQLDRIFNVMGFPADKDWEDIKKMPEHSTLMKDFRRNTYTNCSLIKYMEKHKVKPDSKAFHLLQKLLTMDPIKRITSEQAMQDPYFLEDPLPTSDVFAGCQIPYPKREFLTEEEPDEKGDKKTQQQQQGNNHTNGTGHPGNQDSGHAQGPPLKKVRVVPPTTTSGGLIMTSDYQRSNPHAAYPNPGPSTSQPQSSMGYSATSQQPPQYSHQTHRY
T1 sequence (Q62447 1-283 partner): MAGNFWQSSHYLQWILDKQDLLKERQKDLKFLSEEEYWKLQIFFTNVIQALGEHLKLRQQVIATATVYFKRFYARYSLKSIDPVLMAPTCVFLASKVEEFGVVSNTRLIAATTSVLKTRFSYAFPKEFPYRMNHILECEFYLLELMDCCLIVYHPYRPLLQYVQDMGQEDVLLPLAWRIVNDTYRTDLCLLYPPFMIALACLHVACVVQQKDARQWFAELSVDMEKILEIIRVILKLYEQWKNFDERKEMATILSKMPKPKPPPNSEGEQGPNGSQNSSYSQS
Source text: (§1) Both the extent and the kinetics of CDK8 degradation were similar between two cell lines, with the degradation reaching maximum at about 8 hrs of PROTAC treatment.

CDK19 [2] = molecular target: T2, CDK19 (Homo sapiens, UniProt Q9BWU1); assay: CDK19 degradation in Loucy T-cell leukemia cells lacking Cyclin C; assay type: cell-based; set-up: endogenous in cells; host or cells: Loucy; conditions: Loucy cells (lacking CCNC), 24 hr treatment
Source text: This cell line, however, is unique in lacking Cyclin C (CCNC), the binding partner of CDK8/19. To test if the absence of CDK8-bound CCNC was responsible for the loss of IA7843 CDK8-degrading activity, we have tested the effect of IA7843 on a derivative of HEK-293cells with CRISPR-mediated knockout of CCNC.
Target sequence in this assay (Q9BWU1 whole entry): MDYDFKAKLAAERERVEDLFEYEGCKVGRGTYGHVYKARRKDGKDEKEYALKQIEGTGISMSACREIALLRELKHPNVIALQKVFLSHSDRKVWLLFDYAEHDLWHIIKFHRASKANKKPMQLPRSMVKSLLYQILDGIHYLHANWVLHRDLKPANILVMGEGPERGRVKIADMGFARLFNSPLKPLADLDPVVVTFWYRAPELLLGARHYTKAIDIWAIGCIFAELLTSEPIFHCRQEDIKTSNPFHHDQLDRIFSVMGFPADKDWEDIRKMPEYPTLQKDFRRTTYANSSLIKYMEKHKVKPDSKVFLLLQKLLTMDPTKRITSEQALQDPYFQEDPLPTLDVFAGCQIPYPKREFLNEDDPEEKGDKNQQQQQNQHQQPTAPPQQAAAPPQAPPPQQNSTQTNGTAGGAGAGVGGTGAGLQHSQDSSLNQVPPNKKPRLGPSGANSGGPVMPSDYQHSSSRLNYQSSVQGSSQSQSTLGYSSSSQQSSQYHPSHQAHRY

CDK8 [3] = molecular target: T3, CDK8 (Canis lupus familiaris, UniProt A0A8I3PYQ8); assay: CDK8 degradation in canine Abrams osteosarcoma cells; assay type: cell-based
T3 construct: endogenous in cells; host or cells: Abrams (canine osteosarcoma)
T3 sequence (A0A8I3PYQ8 1-464): T1 sequence (Q8R3L8 1-464) with L82Q, E366D, T372N, G394S, A396T, A449T
Source text: as §1

CDK8 [4] = molecular target: CDK8 (Homo sapiens, UniProt P49336); assay: CDK8 degradation in HEK-293 cells (Western blot, normalized by GAPDH); assay type: cell-based; set-up: endogenous in cells; host or cells: HEK-293
Outline: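 HEK-293 cells were treated for 24 h with or without compound, at 1 μM or 0.3 μM for single-point testing. RIPA lysates were immunoblotted for CDK8, and densitometry gave levels normalized to GAPDH. DC50 is the concentration that reduces CDK8 to half its level in untreated cells.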

CDK19 [5] = molecular target: T2, CDK19; assay: CDK19 degradation in other human cell lines (22Rv1, MV4-11, HAP-1, HTB-185, SAOS2, SJSA-1); assay type: cell-based; set-up: endogenous in cells; conditions: 24-hr treatment
Source text: FIG. 5 illustrates the effects of the novel PROTACs HP8580, IA7843 and IA7886 on CDK8 and CDK19 degradation in other human cell lines, including 22Rv1 prostate cancer (expressing more CDK19 than CDK8), MV4-11 (AML) and HAP-1 (CML) leukemia cell lines, HTB-185 medulloblastoma, and SAOS2 and SJSA-1 osteosarcoma (the latter expressing only CDK19 but not CDK8).
Target sequence in this assay (Q9BWU1 whole entry): as above
Target sequence in this assay (P24863 whole entry partner): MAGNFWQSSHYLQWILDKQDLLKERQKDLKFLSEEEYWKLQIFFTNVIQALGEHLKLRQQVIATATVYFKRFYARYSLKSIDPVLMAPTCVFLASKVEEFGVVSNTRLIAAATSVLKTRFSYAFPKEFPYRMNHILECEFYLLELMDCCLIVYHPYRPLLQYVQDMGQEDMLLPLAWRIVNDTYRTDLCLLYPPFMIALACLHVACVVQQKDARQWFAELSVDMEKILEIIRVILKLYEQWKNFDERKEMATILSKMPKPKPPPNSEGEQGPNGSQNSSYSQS

Sequence of CDK8 (Homo sapiens, UniProt P49336) (P49336 whole entry): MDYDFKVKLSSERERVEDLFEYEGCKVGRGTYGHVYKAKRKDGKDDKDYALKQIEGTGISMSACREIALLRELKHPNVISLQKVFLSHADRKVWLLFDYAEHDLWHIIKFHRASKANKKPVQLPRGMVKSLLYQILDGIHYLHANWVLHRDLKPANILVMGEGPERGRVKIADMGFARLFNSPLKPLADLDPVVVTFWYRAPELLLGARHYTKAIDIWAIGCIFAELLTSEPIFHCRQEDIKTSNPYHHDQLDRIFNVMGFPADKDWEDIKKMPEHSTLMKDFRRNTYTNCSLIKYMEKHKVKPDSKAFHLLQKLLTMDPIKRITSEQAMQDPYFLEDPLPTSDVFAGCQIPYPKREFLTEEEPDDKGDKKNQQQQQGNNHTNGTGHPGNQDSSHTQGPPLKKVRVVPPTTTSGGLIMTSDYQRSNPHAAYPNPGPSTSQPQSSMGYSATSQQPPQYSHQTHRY
Sequence of CDK8 (Homo sapiens, UniProt P49336) (P24863 whole entry partner): as the sequence (P24863 whole entry partner) above

`O=C(CCCNc1cccc2c1C(=O)N(C1CCC(=O)NC1=O)C2=O)NCCCCCCCCCCC(=O)N1CCN(C(=O)Cn2cc(-c3ccc(-c4cncc5ccccc45)cc3)cn2)CC1` (stereo not shown) [IA7886, 4-[[2-(2,6-dioxo-3-piperidyl)-1,3-dioxo-isoindolin-4-yl]amino]-N-[11-[4-[2-[4-[4-(4-isoquinolyl)phenyl]pyrazol-1-yl]acetyl]piperazin-1-yl]-11-oxo-undecyl]butanamide] was tested, and the “levels of CCL12 mRNA in tumors” value (CCL12) was “decreased in tumors treated with IA7882 or IA7886 2 hrs or 8 hrs (but not 24 hrs) after dosing”, the “CDK8 degradation (in words)” value (CDK8 [1]) was “induce CDK8 degradation in both cell lines” and the “time at which CDK8 degradation reaches maximum” value (CDK8 [1]; 100 nM) was “about 8 hrs”. The “CDK19 degradation (in words)” value (CDK19 [2]) was “efficiently degraded CDK8 and CDK19”, the “CDK8 degradation (in words)” value (CDK8 [3]) was “induce CDK8 degradation in both cell lines” and the “% CDK8 remaining” value (CDK8 [4]; HEK-293 cells, 24 hours, tested at 1 μM) was 19%. For the same compound, the “CDK8 degradation (in words)” value (CDK8 [4]; HEK-293 cells, Western blot) was “most potent CDK8 degrader in this set”, the DC50 (CDK8 [4]; HEK-293 cells, concentration degrading CDK8 to half of level in untreated cells) was 2.8 nM and the “time at which CDK8 degradation reaches maximum” value (CDK8 [4]; human 293 cells, 100 nM) was “about 8 hrs”. For the same compound, the “CDK19 degradation (in words)” value (CDK19 [5]) was “significantly degraded CDK8 and CDK19 in all the tested cell lines”.
